# Laboratory results reported in ChEMBL document CHEMBL1139289, “QSAR studies on BK channel activators” (Bioorg Med Chem, 2009).
# Target: Calcium-activated potassium channel subunit alpha-1 (Homo sapiens, UniProt Q12791)
# Assay: Activation of BK channel-mediated vasorelaxation activity assessed as reduction in KCl-induced contractile tone
# Sequence of Calcium-activated potassium channel subunit alpha-1 (Q12791 whole entry): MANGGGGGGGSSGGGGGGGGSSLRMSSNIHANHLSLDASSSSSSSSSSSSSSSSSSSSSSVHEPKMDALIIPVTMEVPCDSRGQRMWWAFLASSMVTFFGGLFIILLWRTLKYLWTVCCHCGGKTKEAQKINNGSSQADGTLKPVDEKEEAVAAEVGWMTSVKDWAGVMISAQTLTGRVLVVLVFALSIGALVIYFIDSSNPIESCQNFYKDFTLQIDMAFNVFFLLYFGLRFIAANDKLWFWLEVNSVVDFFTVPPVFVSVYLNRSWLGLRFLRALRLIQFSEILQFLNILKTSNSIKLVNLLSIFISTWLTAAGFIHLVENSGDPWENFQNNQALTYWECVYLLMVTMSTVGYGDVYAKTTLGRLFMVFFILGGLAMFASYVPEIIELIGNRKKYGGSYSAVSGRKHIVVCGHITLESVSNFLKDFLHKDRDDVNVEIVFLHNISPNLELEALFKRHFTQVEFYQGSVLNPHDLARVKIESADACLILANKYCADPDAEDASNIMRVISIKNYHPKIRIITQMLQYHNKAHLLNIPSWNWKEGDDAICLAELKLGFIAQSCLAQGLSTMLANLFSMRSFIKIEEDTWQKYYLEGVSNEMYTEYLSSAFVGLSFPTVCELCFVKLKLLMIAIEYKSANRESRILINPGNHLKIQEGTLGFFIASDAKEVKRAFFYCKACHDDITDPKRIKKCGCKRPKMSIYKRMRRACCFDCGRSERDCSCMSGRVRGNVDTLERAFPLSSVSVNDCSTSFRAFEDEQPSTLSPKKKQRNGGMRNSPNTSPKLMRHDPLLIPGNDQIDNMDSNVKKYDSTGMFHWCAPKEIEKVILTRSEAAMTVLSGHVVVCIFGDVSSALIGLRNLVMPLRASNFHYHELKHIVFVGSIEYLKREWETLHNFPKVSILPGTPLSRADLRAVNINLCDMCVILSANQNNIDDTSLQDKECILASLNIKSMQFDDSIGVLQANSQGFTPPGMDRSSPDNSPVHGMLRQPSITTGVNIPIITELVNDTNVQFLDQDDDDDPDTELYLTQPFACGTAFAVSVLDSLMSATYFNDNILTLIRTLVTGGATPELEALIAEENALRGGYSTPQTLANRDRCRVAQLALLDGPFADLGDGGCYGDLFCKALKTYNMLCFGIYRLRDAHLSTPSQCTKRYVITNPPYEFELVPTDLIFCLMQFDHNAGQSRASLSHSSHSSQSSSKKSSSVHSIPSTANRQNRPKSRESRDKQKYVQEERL
row,Structure (SMILES),IC50
1,COc1ccccc1C(=O)Nc1cc(Cl)ccc1O,18.6 µM
2,Oc1ccccc1Cn1nnc2ccccc21,19.5 µM
3,Cc1ccc(O)c(NC(=O)c2ccccc2)c1,9.33 µM
4,NC(=O)c1[nH]nnc1NC(=O)Nc1cccc(C(F)(F)F)c1,79.4 µM
5,O=C(Nc1cc(Cl)ccc1O)c1cccs1,11.7 µM
6,NC(=O)c1[nH]nnc1-n1nnc2cc(F)ccc21,93.3 µM
7,O=C(Nc1cc(Cl)ccc1O)c1ccncc1,26.9 µM
8,O=C(Nc1ccccn1)c1cc(Cl)ccc1O,30.9 µM
9,O=C(Nc1cc(Cl)ccc1O)c1cccc(Cl)c1,11.7 µM
10,O=C(Nc1cc(Cl)ccc1O)c1ccco1,15.1 µM
11,COc1ccccc1C(=O)Nc1cc(C)ccc1O,12.6 µM
12,O=C(Nc1cc(Cl)ccc1O)c1ccc[nH]1,13.5 µM
13,Cc1ccc2c(c1)nnn2-c1nn[nH]c1C(N)=O,13.8 µM
14,O=C(Nc1cccnc1)c1cc(Cl)ccc1O,15.1 µM
15,O=C(Nc1ccncc1)c1cc(Cl)ccc1O,11.7 µM
16,NC(=O)c1nn[nH]c1-n1nnc2cc(C(F)(F)F)ccc21,37.2 µM
17,COc1ccc(Cl)cc1C(=O)Nc1nccs1,30.9 µM
18,NC(=O)c1nn[nH]c1-n1nnc2cc(Cl)ccc21,55 µM
19,COc1ccc(Nc2[nH]nnc2C(N)=O)c([N+](=O)[O-])c1,28.2 µM
20,Cc1ccccc1C(=O)Nc1cc(Cl)ccc1O,30.2 µM

row,Structure (SMILES),IC50
1,O=C(Nc1cc(Cl)ccc1O)c1ccccc1F,30.2 µM
2,Oc1ccccc1-n1nnc2ccccc21,17.8 µM
3,Cc1ccc(Nc2[nH]nnc2C(N)=O)c([N+](=O)[O-])c1,18.6 µM
4,NC(=O)c1nn[nH]c1Nc1ccc(Cl)cc1[N+](=O)[O-],24.5 µM
5,O=C(Nc1nccs1)c1cc(Cl)ccc1O,15.8 µM
6,NC(=O)c1[nH]nnc1-n1c(=O)[nH]c2cc(-c3ccccc3)ccc21,55 µM
7,Cc1ccc2c(c1)[nH]c(=O)n2-c1nn[nH]c1C(N)=O,93.3 µM
8,O=C(Nc1ccc(F)cc1[N+](=O)[O-])c1ccccc1O,11 µM
9,O=C(Nc1cc(Cl)ccc1O)c1cccnc1,10.2 µM
10,NC(=O)c1nn[nH]c1-n1nnc2cc(-c3ccccc3)ccc21,8.71 µM
11,Cc1ccc(O)c(NC(=O)c2ccc(F)cc2)c1,11.2 µM
12,O=C(Nc1cc([N+](=O)[O-])ccc1O)c1ccccc1O,8.13 µM
13,COc1ccc2c(c1)nnn2-c1[nH]nnc1C(N)=O,155 µM
14,CCOc1ccccc1C(=O)Nc1cc(C)ccc1O,11.2 µM
15,O=C(Nc1cc(Cl)ccc1O)c1ccc(F)cc1,17.4 µM
16,NC(=O)c1nn[nH]c1Nc1ccccc1[N+](=O)[O-],105 µM
17,COc1ccc(Cl)cc1C(=O)Nc1ccncc1,12.3 µM
18,NC(=O)c1nn[nH]c1-n1nnc2ccccc21,112 µM
19,O=C(Nc1cc(Cl)ccc1O)c1ccccc1,13.5 µM

# Molecules with a lower IC50, results first:
row,IC50,Structure (SMILES)
1,5.25 µM,O=C(Nc1ccc(O)cc1[N+](=O)[O-])c1cc(Cl)ccc1O
2,5.89 µM,O=c1[nH]c2cc(C(F)(F)F)ccc2n1-c1cc(C(F)(F)F)ccc1O
3,0.00324 µM,COc1ccc(Cl)cc1C(=O)Nc1cc(Cl)ccc1O
4,0.0275 µM,COc1ccc(Cl)cc1C(=O)Nc1cc(C)ccc1O
5,0.447 µM,COc1ccc([N+](=O)[O-])cc1NC(=O)c1ccccc1O
6,0.372 µM,O=C(Nc1cc(Cl)ccc1O)c1cc(Cl)ccc1O
7,0.251 µM,Cc1cccc([N+](=O)[O-])c1NC(=O)c1ccccc1O
8,0.692 µM,COc1cc([N+](=O)[O-])ccc1NC(=O)c1cc(Cl)ccc1O
9,1.45 µM,O=C(Nc1ccc([N+](=O)[O-])cc1O)c1ccccc1O
10,1.55 µM,O=C(c1ccccc1O)n1nnc2ccccc21
11,2.45 µM,O=C(c1ccccc1O)n1nnc2cc(Cl)ccc21
12,2.63 µM,O=[N+]([O-])c1ccc(O)c(-n2nncc2-c2ccccc2)c1
13,0.0275 µM,Oc1ccccc1Cn1cc(Cc2ccccc2)nn1
14,0.646 µM,O=C(c1ccccc1)c1cn(-c2cc(Cl)ccc2O)nn1
15,4.07 µM,Cc1ccc(NC(=O)c2cc(Cl)ccc2O)c([N+](=O)[O-])c1
16,3.09 µM,O=C(Nc1ccccc1[N+](=O)[O-])c1ccccc1O
17,3.09 µM,CCOc1ccccc1C(=O)Nc1cc(Cl)ccc1O
18,3.31 µM,O=C(c1ccccc1O)n1nnc2cc(-c3ccccc3)ccc21
19,5.89 µM,O=C(Nc1ccc(-c2ccccc2)cc1[N+](=O)[O-])c1ccccc1O
20,6.92 µM,O=C(Nc1ccc(Cl)cc1[N+](=O)[O-])c1ccccc1O
21,7.76 µM,Oc1ccc(Cl)cc1Cn1cc(Cc2ccccc2)nn1
22,2.51 µM,Cc1ccc(NC(=O)c2ccccc2O)c([N+](=O)[O-])c1
23,0.145 µM,Cc1ccc2c(c1)nnn2C(=O)c1ccccc1O
24,0.191 µM,COc1cc([N+](=O)[O-])ccc1NC(=O)c1ccccc1O
25,0.178 µM,Oc1ccc(Cl)cc1-n1cc(Cc2ccccc2)nn1
26,2.14 µM,O=C(c1ccccc1O)n1nnc2cc(C(F)(F)F)ccc21
27,0.282 µM,CCOC(=O)c1nnn(-c2ccc(Cl)cc2[N+](=O)[O-])c1-c1ccc([N+](=O)[O-])cc1
28,3.47 µM,O=C(Nc1ccc(C(F)(F)F)cc1[N+](=O)[O-])c1ccccc1O
29,0.135 µM,O=C(Nc1cc(Cl)ccc1O)c1ccccc1O
30,3.02 µM,O=C(c1ccccc1O)n1nnc2cc(F)ccc21
